Measured values reported in PubChem BioAssay (NCI).
“And” between values parts separate entries of the source, which are not always exact repeats. Equal values may be shown once.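 Cultured in 96-well plates, cells were exposed to test compound for 48 hours across five concentrations. Abbreviation: GI50, concentration required for 50% inhibition of growth. TGI: concentration producing complete growth inhibition.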

How the values were obtained:
Assay in all cases: inhibition of tumour cell growth, NCI panel, 48 h
K-562 leukemia = system: K-562 leukemia
EKVX NSCLC = system: EKVX NSCLC
ACHN renal = system: ACHN renal
CCRF-CEM leukemia = system: CCRF-CEM leukemia
MCF7 breast = system: MCF7 breast
SNB-19 CNS = system: SNB-19 CNS
M14 melanoma = system: M14 melanoma
SF-268 CNS = system: SF-268 CNS
HOP-62 NSCLC = system: HOP-62 NSCLC
NCI/ADR-RES ovarian = system: NCI/ADR-RES ovarian

Structure (SMILES) | GI50 (K-562 leukemia) [µM] | TGI (K-562 leukemia) [µM] | GI50 (EKVX NSCLC) [µM] | TGI (EKVX NSCLC) [µM] | GI50 (ACHN renal) [µM] | TGI (ACHN renal) [µM] | GI50 (CCRF-CEM leukemia) [µM] | TGI (CCRF-CEM leukemia) [µM] | GI50 (MCF7 breast) [µM] | TGI (MCF7 breast) [µM] | GI50 (SNB-19 CNS) [µM] | TGI (SNB-19 CNS) [µM] | GI50 (M14 melanoma) | TGI (M14 melanoma) [µM] | GI50 (SF-268 CNS) [µM] | TGI (SF-268 CNS) [µM] | GI50 (HOP-62 NSCLC) [µM] | TGI (HOP-62 NSCLC) [µM] | GI50 (NCI/ADR-RES ovarian) | TGI (NCI/ADR-RES ovarian) [µM]
CCOC(=O)c1c(C)nc2c(c1N)/C(=C/c1ccccn1)C(=O)N2Cc1ccccc1 | 1.77 | > 50 | 1.21 | > 50 | 0.906 | 1.76 | 1.56 | > 50 | 1.38 | 4.13 | 1.09 | 2.49 | 1.03 µM | 2.39 | 1.41 | > 50 |  |  |  | 
O=C(CC1C(=O)Nc2ccccc2S1(=O)=O)Nc1ccc(Cl)cc1 (stereo not given) |  | 48.9 |  |  |  | 71.9 |  | 77.7 |  |  |  | 57.1 |  | > 100 |  | 28.6 |  |  |  | 
COc1ccc2c(c1)/C(=C\c1c(-c3cc(OC)ccc3OC)nc3sccn13)C(=O)N2 | 5.88 |  |  |  | 2.37 | 9.74 | 6.91 |  |  |  | 1.72 | 3.54 | 7.14 µM and 1.71 µM | 3.09 | 2.08 | 4.32 | 1.75 | 3.29 | 4.83 µM and 1.7 µM | 3.39
C/C=C/C(=O)[O-].C/C=C/C(=O)[O-].N.N.N.N.[Co+3].[O-][Cl+3]([O-])([O-])[O-] | > 100 | > 100 | > 100 | > 100 | > 100 | > 100 | > 100 | > 100 |  |  | > 100 | > 100 | > 100 µM | > 100 | > 100 | > 100 | > 100 | > 100 |  | 
C[N+](C)(C)c1cc[c]([Sn]([c]2ccc([N+](C)(C)C)cc2)([c]2ccc([N+](C)(C)C)cc2)[c]2ccc([N+](C)(C)C)cc2)cc1 | > 100 | > 100 | > 100 | > 100 | > 100 | > 100 |  |  |  |  | > 100 | > 100 | > 100 µM | > 100 | > 100 | > 100 | > 100 | > 100 |  | 
COc1cc2ncnc(Nc3ccc(Oc4ccnc(C)c4)c(C)c3)c2cc1NC(=O)CC1CCSS1 (stereo not given) | 0.253 | 1.18 | 1.36 | > 50 | 1.49 | 8.48 | 0.253 | 1.69 |  |  | 1.08 | 2.49 |  |  | 0.94 | 2.17 | 1.16 | 2.91 | 2.14 µM | > 50
CC1=CP(=O)(c2ccccc2)C=C(C)C1=C(Cl)Cl (stereo not given) |  | 13.6 |  |  |  |  |  | 19.2 |  |  |  | 32.8 |  | 17.9 |  | 42.4 |  | 12.5 |  | 
COc1cc(/C=C(\NC(=O)c2ccccc2)c2nc3ncncc3[nH]2)cc(OC)c1OC |  | > 100 |  | > 100 |  | > 100 |  | > 100 |  |  |  | > 100 |  | > 100 |  | > 100 |  |  |  | 
CCOC(=N)CC(=O)Nc1ccccc1 |  | > 31.6 |  | > 100 |  | > 46.4 |  | > 31.6 |  |  |  | > 100 |  | > 46.4 |  | > 46.4 |  | > 46.4 |  | 
Cc1ccc(N=C2N=C(N3CC(C)OC(C)C3)c3ccccc32)cc1 (stereo not given) |  | > 100 |  | > 100 |  | > 100 |  | 66.8 |  |  |  | > 100 |  | 56.5 |  | > 100 |  | > 100 |  | 
CCc1cc2c(O)c(c1)Cc1cc(CC)cc(c1O)Cc1cc(CC)cc(c1O)Cc1cc(CC)cc(c1O)Cc1cc(CC)cc(c1O)Cc1cc(CC)cc(c1O)Cc1cc(CC)cc(c1O)C2 |  |  |  | > 100 |  | > 100 |  | > 100 |  |  |  | 71.7 |  | > 100 |  | > 100 |  | > 100 |  | 
COc1ccc(/C=C/C(=O)c2c(-c3ccccc3)nn(C)c(=O)c2N2CCOCC2)cc1 |  | > 100 |  | > 100 |  | > 100 |  | > 100 |  |  |  | > 100 |  | > 100 |  | > 100 |  |  |  | 
O=C(N=c1nc(NC(=O)c2ccccc2)ss1)c1ccccc1 |  | > 100 |  | > 100 |  | 31.6 |  | > 100 |  |  |  | > 100 |  | 76.2 |  | > 100 |  | > 100 |  | 
O=C(Nc1ccc(Cl)cc1C(=O)O)c1ccc([N+](=O)[O-])cc1 |  | 90.4 |  | 82.8 |  | 49.6 |  | 67.4 |  |  |  | > 100 |  | 60.8 |  | > 100 |  | 39.2 |  | 
COc1ccc(O)cc1C(O)c1ccccc1 (stereo not given) |  | > 100 |  | > 100 |  | > 100 |  | > 100 |  |  |  | > 100 |  | > 100 |  | > 100 |  | > 100 |  | 
Cc1ccc(/C=C/C(=O)c2sc(-n3nc(-c4ccccc4)cc3-c3ccccc3)nc2C)cc1 |  | > 100 |  | > 100 |  | > 100 |  | > 100 |  |  |  |  |  |  |  | > 100 |  | > 100 |  | 
